Measurements reported in patent publication US4948782A, “A method of promoting the growth of domestic animals with erythromycin derivative containing composition” (Kitasato Kenkyusho, priority 1987, dated 1990).

Columns and labels:
Type in all cases: cell-based
[1] = system: Staphylococcus aureus ATCC 6538P; assay: MIC, Staphylococcus aureus ATCC 6538P (SA(1)); settings: Staphylococcus aureus ATCC 6538P; for MIC: Staphylococcus aureus, ATCC6538P, read-out: MIC SA (1)
Source text: (§1) The minimum inhibitory concentrations (MIC: mcg/ml) of the erythromycin derivatives of the present invention and the control erythromycin derivative (*) as the known growth promoting agent on typical test bacteria are shown in the following Tables 1 to 5.
SA(1): Staphylococcus aureus ATCC 6538P

[2] = system: Staphylococcus aureus FDA 209P; assay: MIC, Staphylococcus aureus FDA 209P (SA(2)); settings: Staphylococcus aureus FDA 209P; for MIC: Staphylococcus aureus, FDA209P, read-out: MIC SA (2)
Source text: as §1
SA(2): Staphylococcus aureus FDA 209P

Bacillus subtilis = assay: MIC, Bacillus subtilis (BS); settings: for MIC: read-out: MIC BS
Bacillus cereus IFO 3001 = assay: MIC, Bacillus cereus IFO 3001 (BC); settings: for MIC: Bacillus cereus, IFO3001, Bacillus cereus IFO 3001, read-out: MIC BC
Escherichia coli NIHJ = assay: MIC, Escherichia coli NIHJ (EC)
[3] = system: Klebsiella pneumoniae ATCC 10031; assay: MIC, Klebsiella pneumoniae ATCC 10031 (KP); settings: Klebsiella pneumoniae ATCC 10031; for MIC: ATCC10031, read-out: MIC KP

CCC1OC(=O)C(C)C(OC2CC(C)(OC)C(O)C(C)O2)C(C)C(OC2OC(C)CC([N+]3(CC)CCCC3)C2O)C2(C)CC(C)=C(O2)C(C)C(O)C1(C)O (stereo not drawn) [Compound 24]
> 100 µg/mL: MIC [1] | MIC [2] | MIC (Bacillus subtilis) | MIC (Bacillus cereus IFO 3001) | MIC (Escherichia coli NIHJ) | MIC [3]

CCC1OC(=O)C(C)C(OC2CC(C)(OC)C(O)C(C)O2)C(C)C(OC2OC(C)CC([N+]3(C)CCCCC3)C2O)C2(C)CC(C)=C(O2)C(C)C(O)C1(C)O (stereo not drawn) [Compound 25]
> 100 µg/mL: MIC [1] | MIC [2] | MIC (Bacillus subtilis) | MIC (Bacillus cereus IFO 3001) | MIC (Escherichia coli NIHJ) | MIC [3]

CCC1OC(=O)C(C)C(OC2CC(C)(OC)C(O)C(C)O2)C(C)C(OC2OC(C)CC([N+]3(CC)CCCCC3)C2O)C2(C)CC(C)=C(O2)C(C)C(O)C1(C)O (stereo not drawn) [Compound 26]
> 100 µg/mL: MIC [1] | MIC [2] | MIC (Bacillus subtilis) | MIC (Bacillus cereus IFO 3001) | MIC (Escherichia coli NIHJ) | MIC [3]

C#CC[N+](C)(C)C1CC(C)OC(OC2C(C)C(OC3CC(C)(OC)C(O)C(C)O3)C(C)C(=O)OC(CC)C(C)(O)C(O)C(C)C3=C(C)CC2(C)O3)C1O (stereo not drawn) [Compound 27]
100 µg/mL: MIC [1] | MIC [2] | MIC (Bacillus subtilis) | MIC (Bacillus cereus IFO 3001)
> 100 µg/mL: MIC (Escherichia coli NIHJ) | MIC [3]

C#CC[N+](C)(C)C1CC(C)OC(OC2C(C)C(OC3CC(C)(OC)C(O)C(C)O3)C(C)C(=O)OC(CC)C(C)(OC(C)=O)C(OC(C)=O)C(C)C3=C(C)CC2(C)O3)C1O (stereo not drawn) [Compound 28]
50 µg/mL: MIC [1] | MIC [2] | MIC (Bacillus subtilis) | MIC (Bacillus cereus IFO 3001)
> 100 µg/mL: MIC (Escherichia coli NIHJ) | MIC [3]

CCC1OC(=O)C(C)C(OC2CC(C)(OC)C(O)C(C)O2)C(C)C(OC2OC(C)CC([N+](C)(C)CC)C2O)C2(C)CC(C)=C(O2)C(C)C(OC(C)=O)C1(C)OC(C)=O (stereo not drawn) [Compound 29]
50 µg/mL: MIC [2]
> 100 µg/mL: MIC (Escherichia coli NIHJ) | MIC [3]
100 µg/mL: MIC [1] | MIC (Bacillus subtilis) | MIC (Bacillus cereus IFO 3001)

CCC1OC(=O)C(C)C(OC2CC(C)(OC)C(O)C(C)O2)C(C)C(OC2OC(C)CC([N+](C)(C)CC(=O)OC)C2O)C2(C)CC(C)=C(O2)C(C)C(O)C1(C)O (stereo not drawn) [Compound 30]
> 100 µg/mL: MIC [1] | MIC [2] | MIC (Bacillus subtilis) | MIC (Bacillus cereus IFO 3001) | MIC (Escherichia coli NIHJ) | MIC [3]

CCC1OC(=O)C(C)C(OC2CC(C)(OC)C(O)C(C)O2)C(C)C(OC2OC(C)CC([N+](C)(C)CC(=O)O)C2O)C2(C)CC(C)=C(O2)C(C)C(O)C1(C)O (stereo not drawn) [Compound 31]
> 100 µg/mL: MIC [1] | MIC [2] | MIC (Bacillus subtilis) | MIC (Bacillus cereus IFO 3001) | MIC (Escherichia coli NIHJ) | MIC [3]

CCC1OC(=O)C(C)C(OC2CC(C)(OC)C(O)C(C)O2)C(C)C(OC2OC(C)CC([N+](C)(C)CCF)C2O)C2(C)CC(C)=C(O2)C(C)C(O)C1(C)O (stereo not drawn) [Compound 32]
> 100 µg/mL: MIC [1] | MIC [2] | MIC (Bacillus subtilis) | MIC (Bacillus cereus IFO 3001) | MIC (Escherichia coli NIHJ) | MIC [3]

CCC1OC(=O)C(C)C(OC2CC(C)(OC)C(O)C(C)O2)C(C)C(OC2OC(C)CC([N+](C)(C)CC#N)C2O)C2(C)CC(C)=C(O2)C(C)C(O)C1(C)O (stereo not drawn) [Compound 33]
> 100 µg/mL: MIC [1] | MIC [2] | MIC (Bacillus subtilis) | MIC (Bacillus cereus IFO 3001) | MIC (Escherichia coli NIHJ) | MIC [3]

C=CCN(C)C1CC(C)OC(OC2C(C)C(OC3CC(C)(OC)C(O)C(C)O3)C(C)C(=O)OC(CC)C(C)(O)C(O)C(C)C3=C(C)CC2(C)O3)C1O (stereo not drawn) [Compound 34]
> 100 µg/mL: MIC [1] | MIC [2] | MIC (Bacillus subtilis) | MIC (Bacillus cereus IFO 3001) | MIC (Escherichia coli NIHJ) | MIC [3]

C#CCN(C)C1CC(C)OC(OC2C(C)C(OC3CC(C)(OC)C(O)C(C)O3)C(C)C(=O)OC(CC)C(C)(O)C(O)C(C)C3=C(C)CC2(C)O3)C1O (stereo not drawn) [Compound 35]
> 100 µg/mL: MIC [1] | MIC [2] | MIC (Bacillus subtilis) | MIC (Bacillus cereus IFO 3001) | MIC (Escherichia coli NIHJ) | MIC [3]

CCCN(C)C1CC(C)OC(OC2C(C)C(OC3CC(C)(OC)C(O)C(C)O3)C(C)C(=O)OC(CC)C(C)(O)C(O)C(C)C3=C(C)CC2(C)O3)C1O (stereo not drawn) [Compound 36]
> 100 µg/mL: MIC [1] | MIC [2] | MIC (Bacillus subtilis) | MIC (Bacillus cereus IFO 3001) | MIC (Escherichia coli NIHJ) | MIC [3]

CCC1OC(=O)C(C)C(OC2CC(C)(OC)C(O)C(C)O2)C(C)C(OC2OC(C)CC(N(C)CCO)C2O)C2(C)CC(C)=C(O2)C(C)C(O)C1(C)O (stereo not drawn) [Compound 37]
> 100 µg/mL: MIC [1] | MIC [2] | MIC (Bacillus subtilis) | MIC (Bacillus cereus IFO 3001) | MIC (Escherichia coli NIHJ) | MIC [3]

C=CCN(CC=C)C1CC(C)OC(OC2C(C)C(OC3CC(C)(OC)C(O)C(C)O3)C(C)C(=O)OC(CC)C(C)(O)C(O)C(C)C3=C(C)CC2(C)O3)C1O (stereo not drawn) [Compound 38]
> 100 µg/mL: MIC [1] | MIC [2] | MIC (Bacillus subtilis) | MIC (Bacillus cereus IFO 3001) | MIC (Escherichia coli NIHJ) | MIC [3]

C=CCNC1CC(C)OC(OC2C(C)C(OC3CC(C)(OC)C(O)C(C)O3)C(C)C(=O)OC(CC)C(C)(O)C(O)C(C)C3=C(C)CC2(C)O3)C1O (stereo not drawn) [Compound 39]
> 100 µg/mL: MIC [1] | MIC [2] | MIC (Bacillus subtilis) | MIC (Bacillus cereus IFO 3001) | MIC (Escherichia coli NIHJ) | MIC [3]

C#CCN(CC#C)C1CC(C)OC(OC2C(C)C(OC3CC(C)(OC)C(O)C(C)O3)C(C)C(=O)OC(CC)C(C)(O)C(O)C(C)C3=C(C)CC2(C)O3)C1O (stereo not drawn) [Compound 40]
> 100 µg/mL: MIC [1] | MIC [2] | MIC (Bacillus subtilis) | MIC (Bacillus cereus IFO 3001) | MIC (Escherichia coli NIHJ) | MIC [3]

C#CCNC1CC(C)OC(OC2C(C)C(OC3CC(C)(OC)C(O)C(C)O3)C(C)C(=O)OC(CC)C(C)(O)C(O)C(C)C3=C(C)CC2(C)O3)C1O (stereo not drawn) [Compound 41]
> 100 µg/mL: MIC [1] | MIC [2] | MIC (Bacillus subtilis) | MIC (Bacillus cereus IFO 3001) | MIC (Escherichia coli NIHJ) | MIC [3]

C#CCN(CC=C)C1CC(C)OC(OC2C(C)C(OC3CC(C)(OC)C(O)C(C)O3)C(C)C(=O)OC(CC)C(C)(O)C(O)C(C)C3=C(C)CC2(C)O3)C1O (stereo not drawn) [Compound 42]
> 100 µg/mL: MIC [1] | MIC [2] | MIC (Bacillus subtilis) | MIC (Bacillus cereus IFO 3001) | MIC (Escherichia coli NIHJ) | MIC [3]

C=CC[N+](C)(CC=C)C1CC(C)OC(OC2C(C)C(OC3CC(C)(OC)C(O)C(C)O3)C(C)C(=O)OC(CC)C(C)(O)C(O)C(C)C3=C(C)CC2(C)O3)C1O (stereo not drawn) [Compound 43]
> 100 µg/mL: MIC (Bacillus subtilis) | MIC (Bacillus cereus IFO 3001) | MIC (Escherichia coli NIHJ) | MIC [3]
100 µg/mL: MIC [1] | MIC [2]

C#CC[N+](C)(CC=C)C1CC(C)OC(OC2C(C)C(OC3CC(C)(OC)C(O)C(C)O3)C(C)C(=O)OC(CC)C(C)(O)C(O)C(C)C3=C(C)CC2(C)O3)C1O (stereo not drawn) [Compound 44]
100 µg/mL: MIC [2]
> 100 µg/mL: MIC [1] | MIC (Bacillus subtilis) | MIC (Bacillus cereus IFO 3001) | MIC (Escherichia coli NIHJ) | MIC [3]

C#CC[N+](C)(CC#C)C1CC(C)OC(OC2C(C)C(OC3CC(C)(OC)C(O)C(C)O3)C(C)C(=O)OC(CC)C(C)(O)C(O)C(C)C3=C(C)CC2(C)O3)C1O (stereo not drawn) [Compound 45]
> 100 µg/mL: MIC (Bacillus subtilis) | MIC (Bacillus cereus IFO 3001) | MIC (Escherichia coli NIHJ) | MIC [3]
100 µg/mL: MIC [1] | MIC [2]

C=CC[N+](CC=C)(CC=C)C1CC(C)OC(OC2C(C)C(OC3CC(C)(OC)C(O)C(C)O3)C(C)C(=O)OC(CC)C(C)(O)C(O)C(C)C3=C(C)CC2(C)O3)C1O (stereo not drawn) [Compound 46]
> 100 µg/mL: MIC [1] | MIC [2] | MIC (Bacillus subtilis) | MIC (Bacillus cereus IFO 3001) | MIC (Escherichia coli NIHJ) | MIC [3]

C#CC[N+](CC=C)(CC=C)C1CC(C)OC(OC2C(C)C(OC3CC(C)(OC)C(O)C(C)O3)C(C)C(=O)OC(CC)C(C)(O)C(O)C(C)C3=C(C)CC2(C)O3)C1O (stereo not drawn) [Compound 47]
> 100 µg/mL: MIC (Escherichia coli NIHJ) | MIC [3]
100 µg/mL: MIC [1] | MIC [2] | MIC (Bacillus subtilis)
50 µg/mL: MIC (Bacillus cereus IFO 3001)

C#CC[N+](CC#C)(CC#C)C1CC(C)OC(OC2C(C)C(OC3CC(C)(OC)C(O)C(C)O3)C(C)C(=O)OC(CC)C(C)(O)C(O)C(C)C3=C(C)CC2(C)O3)C1O (stereo not drawn) [Compound 48]
100 µg/mL: MIC [1] | MIC [2] | MIC (Bacillus subtilis) | MIC (Bacillus cereus IFO 3001)
> 100 µg/mL: MIC (Escherichia coli NIHJ) | MIC [3]

CCCC[N+](C)(C)C1CC(C)OC(OC2C(C)C(OC3CC(C)(OC)C(O)C(C)O3)C(C)C(=O)OC(CC)C(C)(O)C(O)C(C)C3=C(C)CC2(C)O3)C1O (stereo not drawn) [Compound 49]
> 100 µg/mL: MIC (Bacillus subtilis) | MIC (Bacillus cereus IFO 3001) | MIC (Escherichia coli NIHJ) | MIC [3]
100 µg/mL: MIC [1] | MIC [2]

C#CC[N+](C)(C)C1CC(C)OC(OC2C(C)C(OC3CC(C)(OC)C(O)C(C)O3)C(C)C(=O)OC(CC)C(C)(O)C(O)C(C)C3=C(C)CC2(C)O3)C1O (stereo not drawn) [Compound 51]
> 100 µg/mL: MIC SA (1) [1] | MIC SA (2) [2] | MIC BS (Bacillus subtilis) | MIC BC (Bacillus cereus IFO 3001; Bacillus cereus IFO 3001) | MIC EC (Escherichia coli NIHJ) | MIC KP [3]

CCC1OC(=O)C(C)C(OC2CC(C)(OC)C(O)C(C)O2)C(C)C(OC2OC(C)CC(NC)C2O)C2(C)CC(C)=C(O2)C(C)C(OC(C)=O)C1(C)OC(C)=O (stereo not drawn) [Compound 52]
> 100 µg/mL: MIC [1] | MIC [2] | MIC (Bacillus subtilis) | MIC (Bacillus cereus IFO 3001) | MIC (Escherichia coli NIHJ) | MIC [3]
